Measured values from publication PMC7827217, “Probing the Binding Requirements of Modified Nucleosides with the DNA Nuclease SNM1A” (Molecules, 2021).

What was measured:
[1] = system: SNM1A; design: method as in PMID 31380542; conditions: previous work; cited from earlier work
[2] = biological target: T1, recombinant SNM1A (698-1040) (Homo sapiens, UniProt Q6PJP8); assay: Gel-based SNM1A inhibition assay (digestion of fluorescent 21-mer oligonucleotide substrate, denaturing PAGE); format: biochemical; conditions: for Lowest Inhibitory Concentration: concentration gradient 1 mM to 1 µM, approximately 3-fold dilutions, 60 min at 37 °C; for Lowest Inhibitory Concentration / Inhibition of SNM1A (extent of digestion of substrate): SNM1A 2.5 nM, substrate 80 nM, 5 min preincubation; for Inhibition of SNM1A (extent of digestion of substrate): 1 mM compound, 60 min incubation (Figure 2c)
T1 construct: SNM1A (698-1040) was expressed and purified as described by Allerston et al; made in house
T1 sequence (Q6PJP8 698-1040): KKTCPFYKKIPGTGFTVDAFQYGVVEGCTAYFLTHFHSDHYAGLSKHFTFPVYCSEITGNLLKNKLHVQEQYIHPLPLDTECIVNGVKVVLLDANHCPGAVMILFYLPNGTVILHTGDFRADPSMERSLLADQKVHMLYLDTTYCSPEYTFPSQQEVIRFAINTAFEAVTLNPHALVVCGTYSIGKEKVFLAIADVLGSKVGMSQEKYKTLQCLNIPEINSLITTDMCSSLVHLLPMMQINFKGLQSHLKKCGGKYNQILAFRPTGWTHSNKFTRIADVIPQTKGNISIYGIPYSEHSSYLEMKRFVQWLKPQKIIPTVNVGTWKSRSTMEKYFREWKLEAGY
Description: The twelve modified nucleosides (Figure 2a) were evaluated as inhibitors of recombinant SNM1A to evaluate binding to the active site, using a previously reported gel-based assay with the same 21-mer oligonucleotide substrate. The nucleosides were incubated with SNM1A for 5 min prior to the addition of the fluorescently tagged 21-mer oligonucleotide substrate and further incubation for 1 h. In the event of the nucleoside binding to the active site, digestion of the substrate proceeds less efficiently (Figure 2b). SNM1A removes nucleotide monomers from the 5′-end, generating a shorter oligonucleotide that in turn is a substrate for SNM1A and can be digested further. The size of the oligonucleotide products, analysed by gel electrophoresis, therefore indicates how strongly a compound binds to the nuclease.
SNM1A (698-1040) was expressed and purified as described by Allerston et al..
SNM1A (698-1040) was stored as a 1.0 µM solution in reaction buffer (20 mM HEPES-KOH, pH 7.5, 50 mM KCl, 10 mM MgCl2, 0.05% Triton-X, 0.1 mg/mL BSA, 5% glycerol, 0.5 mM DTT). An oligonucleotide of the sequence 5′-TTAGCAGTCAGTCAGTCATCG-Cy3-3′ was phosphorylated using T4 PNK (New England Biolabs) and used as the substrate. Modified nucleosides were added to the assay in 40% DMSO solution (10 mM or as specified). Fluorescent oligonucleotides were protected from light during incubations and gel electrophoresis.
Modified nucleosides (10 nmol or as specified) were mixed with SNM1A (698–1040) (25 fmol) in reaction buffer containing 4% DMSO (10 µL) on ice and incubated at 37 °C for 5 min. Phosphorylated oligonucleotide (0.8 pmol) was added and the reaction was incubated at 37 °C for 60 min. The reaction was stopped by the addition of stop solution (2 µL, 95% formamide, 10 mM EDTA) followed by heating to 95 °C for 3 min. The products of the reaction were analysed using gel electrophoresis; 3 µL of each reaction was used.
Oligonucleotides were separated on a 15% acrylamide 6.5 M urea gel (2.9 g urea, 2.7 mL 40% acrylamide-bisacrylamide 25:1, 1.4 mL 5× TBE (0.45 M Tris, 0.45 M boric acid, 0.01 M EDTA pH 8.0), 0.6 mL H2O) in 1X TBE at 150 V for 90 min alongside bromophenol blue and xylene cyanol as markers for 8 and 28 nt, respectively, and imaged using Typhoon FLA 9500.
Figure 2 Evaluation of modified (di)nucleosides as inhibitors of SNM1A. (a) Structures of the twelve (di)nucleosides that were evaluated as inhibitors of SNM1A; (b) schematic representation of assay; (c) gel electrophoresis showing the extent of digestion of fluorescent 21-mer oligonucleotide substrate. SNM1A (2.5 nM) was pre-incubated with the modified (di)nucleosides (1 mM) for 5 min before the oligonucleotide substrate (80 nM) was added and a further 60 min incubation. nt = nucleotides.
Figure 3 Concentration dependence of 5′-C-linked malonate nucleoside 11. Digestion of the phosphorylated oligonucleotide (80 nM) after incubation with SNM1A (2.5 nM) and nucleoside 11 (1000–1 µM) or thymidine (T) (1 mM) for 60 min at 37 °C, analysed by denaturing PAGE. SNM1A was preincubated with the modified nucleoside for 5 min at 37 °C prior to the addition of the substrate. nt = nucleotides.

Compound	Inhibition of SNM1A [1]	Lowest Inhibitory Concentration [2]	Inhibition of SNM1A (extent of digestion of substrate) [2]	Potency compared with previously reported compounds ([2]; various concentrations, Figure 5b)
Cc1cn([C@H]2C[C@H](O)[C@@H](C(=O)NO)O2)c(=O)[nH]c1=O [Compound 1]	inhibit SNM1A to varying degrees	–	–	–
Cc1cn([C@H]2C[C@H](O)[C@@H](CCC(=O)NO)O2)c(=O)[nH]c1=O [Compound 2]	inhibit SNM1A to varying degrees	–	–	–
COC(=O)C(C[C@H]1O[C@@H](n2cc(C)c(=O)[nH]c2=O)C[C@@H]1O)C(=O)O (stereo partly shown) [Compound 9, C-(5′-Deoxythymidin-5′-yl) monomethyl sodium malonate]	–	333 µM	–	–
Cc1cn([C@H]2C[C@H](O)[C@@H](CC(C(=O)O)C(=O)O)O2)c(=O)[nH]c1=O [Compound 10, C-(5′-Deoxythymidin-5′-yl) disodium malonate]	–	333 µM	–	–
Cc1cn([C@H]2C[C@H](O)[C@@H](CC(C(=O)O)C(=O)NO)O2)c(=O)[nH]c1=O (stereo partly shown) [Compound 11, C-(5′-deoxythymidin-5′-yl) sodium N-hydroxymalonamide]	–	33 µM	most potent overall	slightly lower potency than compound 1
Cc1cn([C@H]2C[C@H](O)[C@@H](CNC(=O)CC(=O)NO)O2)c(=O)[nH]c1=O [Compound 15, N-(5′-Deoxythymidin-5′-yl) amido N-hydroxymalonamide]	–	333 µM	binds SNM1A	–
COC(=O)CC(=O)NC1CC(n2cc(C)c(=O)[nH]c2=O)OC1CO (stereo not shown) [Compound 26, N-(3′-Deoxythymidin-3′-yl) amido methyl malonamide]	–	–	inactive	–
Cc1cn([C@H]2C[C@H](NC(=O)CC(=O)O)[C@@H](CO)O2)c(=O)[nH]c1=O [Compound 27, N-(3′-Deoxythymidin-3′-yl) amido sodium malonamide]	–	333 µM	–	–
Cc1cn([C@H]2C[C@H](NC(=O)CC(=O)NO)[C@@H](CO)O2)c(=O)[nH]c1=O [Compound 28, N-(3′-Deoxythymidin-3′-yl) amido N-hydroxymalonamide]	–	333 µM	–	–
COC(=O)C(CC1OC(n2cc(C)c(=O)[nH]c2=O)CC1O)C(=O)NC1CC(n2cc(C)c(=O)[nH]c2=O)OC1CO (stereo not shown) [Compound 34, N-(3′-Deoxythymidin-3′-yl)-C-(5′-deoxythymidin-5′-yl) amido methyl malonate]	–	1000 µM	some inhibition	–
Cc1cn(C2CC(O)C(CC(C(=O)O)C(=O)NC3CC(n4cc(C)c(=O)[nH]c4=O)OC3CO)O2)c(=O)[nH]c1=O (stereo not shown) [Compound 35, N-(3′-Deoxythymidin-3′-yl)-C-(5′-deoxythymidin-5′-yl) amido sodium malonate]	–	333 µM	approximately equal potency	–
Cc1cn(C2CC(O)C(CC(C(=O)NO)C(=O)NC3CC(n4cc(C)c(=O)[nH]c4=O)OC3CO)O2)c(=O)[nH]c1=O (stereo not shown) [Compound 36, N-(3′-Deoxythymidin-3′-yl)-C-(5′-deoxythymidin-5′-yl) amido N-hydroxy malonamide]	–	333 µM	approximately equal potency	–
Cc1cn([C@H]2C[C@H](O)[C@@H](CO)O2)c(=O)[nH]c1=O [Thymidine, reference compound]	–	–	no effect on the hydrolysis of the substrate	–
